Measurements from US7148232B2, “Oxazolo, thiazolo and selenazolo [4,5-c]-quinolin-4-amines and analogs thereof” (3M Innovative Properties Company, priority 1998, dated 2006).
Structures can show the parent of a compound that is named as a salt.

Legend:
[1] = test system: interferon (α); test: Interferon (α) induction in human cells (in vitro human blood cell system, interferon by bioassay); type: cell-based; settings: human PBM's, 48 hours
Experimental: An in vitro human blood cell system was used to assess interferon induction by compounds of the invention. Activity is based on the measurement of interferon secreted into culture media. Interferon is measured by bioassay.
Whole blood is collected by venipuncture into EDTA vacutainer tubes. Peripheral blood mononuclear cells (PBM's) are separated from whole blood by using either LeucoPREP™ Brand Cell Separation Tubes (available from Becton Dickinson) or Ficoll-Paque® solution (available from Pharmacia LKB Biotechnology Inc, Piscataway, N.J.). […] 200 μL portions of PBM suspension are added to 96 well (flat bottom) sterile tissue culture plates (Becton Dickinson Labware, Lincoln Park, N.J.).
The compounds are solubilized in ethanol, dimethyl sulfoxide or tissue culture water then diluted with tissue culture water, 0.01N sodium hydroxide or 0.01N hydrochloric acid (The choice of solvent will depend on the chemical characteristics of the compound being tested.). Ethanol or DMSO concentration should not exceed a final concentration of 1% for addition to the culture wells. Compounds are initially tested in a concentration range of from about 0.1 μg/mL to about 5 μg/mL. Compounds which show induction at a concentration of 0.5 μg/mL are then tested in a wider concentration range.
The solution of test compound is added in a volume (less than or equal to 50 μL) to the wells containing 200 μL of diluted whole blood or of PBM's in media. Solvent and/or media is added to control wells (wells with no test compound) and as needed to adjust the final volume of each well to 250 μL. The plates are covered with plastic lids, vortexed gently and then incubated for 48 hours at 37° C. with a 5% carbon dioxide atmosphere.
Following incubation, the plates are covered with parafilm and then centrifuged at 1000 rpm for 10 to 15 minutes at 4° C. in a Damon IEC Model CRU-5000 centrifuge. Media (about 200 μL) is removed from 4 to 8 wells and pooled into 2 mL sterile freezing vials. Samples are maintained at −70° C. until analysis.
Interferon is determined by bioassay using A549 human lung carcinoma cells challenged with encephalomyocarditis. The details of the bioassay method have been described by G. L. Brennan and L. H. Kronenberg in “Automated Bioassay of Interferons in Micro-test Plates”, Biotechniques, June/Jul. […] The incubated cells are infected with an inoculum of encephalomyocarditis virus. The infected cells are incubated for an additional period at 37° C. before quantifying for viral cytopathic effect. The viral cytopathic effect is quantified by staining followed by spectrophotometric absorbance measurements. Results are expressed as alpha reference units/mL based on the value obtained for NIH HU IF-L standard.
Compounds of the invention were tested for their ability to induce interferon in human cells using the test method described above.

[2] = test system: interferon (α); test: Cytokine induction in human cells: interferon (α) secreted by PBMCs (ELISA or bioassay); type: cell-based; settings: 18 to 24 hours
Experimental: (§1) An in vitro human blood cell system was used to assess cytokine induction by compounds of the invention.
(§2) Whole blood is collected by venipuncture into EDTA vacutainer tubes from healthy human donors. […] The PBMC suspension is added to 48 well flat bottom sterile tissue culture plates (Costar, Cambridge, Mass. or Becton Dickinson Labware, Lincoln Park, N.J.) containing an equal volume of RPMI complete media containing test compound.
(§3) The compounds are solubilized in dimethyl sulfoxide (DMSO). The DMSO concentration should not exceed a final concentration of 1% for addition to the culture wells.
(§4) The solution of test compound is added at 60 μM to the first well containing RPMI complete and serial 3 fold dilutions are made. The PBMC suspension is then added to the wells in an equal volume, bringing the test compound concentrations to the desired range (0.12 to 30 μM). The final concentration of PBMC suspension is 1.5–2×10^6 cells/mL. The plates are covered with sterile plastic lids, mixed gently and then incubated for 18 to 24 hours at 37° C. in a 5% carbon dioxide atmosphere.
(§5) Following incubation the plates are centrifuged for 5–10 minutes at 1000 rpm (˜200×g) at 4° C. The cell culture supernatant is removed with a sterile polypropylene pipet and transferred to sterile polypropylene tubes. Samples are maintained at −30 to −70° C. until analysis. The samples are analyzed for interferon (α) by either ELISA or bioassay and for tumor necrosis factor (α) by ELISA
Interferon is determined by bioassay using A549 human lung carcinoma cells challenged with encephalomyocarditis. […] Briefly stated the method is as follows: A549 cells are incubated with dilutions of samples or a standard interferon at 37° C. for 24 hours. The incubated cells are then infected with an inoculum of encephalomyocarditis virus. The infected cells are incubated for an additional 24 hours at 37° C. before evaluating for viral cytopathic effect. The viral cytopathic effect is quantified by staining with crystal violet followed by visual scoring of the plates. Results are expressed as alpha reference units/mL based on the value obtained for NIH Human Leukocyte IFN standard.
Interferon (α) concentration is determined by ELISA using a Human Multi-Species kit from PBL Biomedical Laboratories, New Brunswick, N.J. according to the manufacturer's instructions.

[3] = test system: tumor necrosis factor (α); test: Cytokine induction in human cells: tumor necrosis factor (α) secreted by PBMCs (ELISA); type: cell-based; settings: 18 to 24 hours
Experimental: as §1, §2, §3, §4, §5
Tumor necrosis factor (α) (TNF) concentration is determined using ELISA kits available from Genzyme, Cambridge, Mass.; R&D Systems, Minneapolis, Minn.; or Pharmingen, San Diego, Calif. according to the manufacturer's instructions.

CCc1nc2c(N)nc3ccccc3c2s1.Cl
melting point: 268 to 270 °C

Nc1nc2ccccc2c2sc(Cc3ccccc3)nc12 (as salt: hydrochloride) [Example 34, 2-Benzylthiazolo[4,5-c]quinolin-4-amine Hydrochloride]
melting point: 152 to 155 °C

CCCc1nc2c(N)nccc2s1 (as salt: trifluoroacetate) [Example 62, 2-Propylpyrido[3,4-d][1,3]thiazol-4-amine Trifluoroacetate]
melting point: 160 to 162 °C

Cl.Nc1nc2ccccc2c2scnc12.O (hydrate or solvate) [Example 5, Thiazolo[4,5-c]quinolin-4-amine Hydrochloride Hydrate]
melting point: 284 to 285 °C

Cl.Nc1nc2ccccc2c2scnc12.O [Example 5, Thiazolo[4,5-c]quinolin-4-amine Hydrochloride Hydrate]
Interferon (α) Induction in Human Cells ([1]; Dose Concentration 0.01 μg/mL): − | Interferon (α) Induction in Human Cells ([1]; Dose Concentration 0.05 μg/mL): − | Interferon (α) Induction in Human Cells ([1]; Dose Concentration 0.10 μg/mL): − | Interferon (α) Induction in Human Cells ([1]; Dose Concentration 0.50 μg/mL): − | Interferon (α) Induction in Human Cells ([1]; Dose Concentration 1.0 μg/mL): + | Interferon (α) Induction in Human Cells ([1]; Dose Concentration 5.0 μg/mL): + | Interferon (α) Induction in Human Cells ([1]; Dose Concentration 10.0 μg/mL): + | Interferon (α) Induction in Human Cells ([1]; Dose Concentration 25.0 μg/mL): + | Interferon (α) Induction in Human Cells ([1]; Dose Concentration 50.0 μg/mL): +

Nc1nc2ccccc2c2scnc12 [Example 6, Thiazolo[4,5-c]quinolin-4-amine]
melting point: 172.4 °C (dec.)

CCc1nc2c[n+]([O-])c3ccccc3c2s1 [Example 7, 2-Ethylthiazolo[4,5-c]quinoline-5N-oxide]
melting point: 128 °C

CCCc1nc2c[n+]([O-])c3ccccc3c2s1 [Example 11, 2-Propylthiazolo[4,5-c]quinoline-5N-oxide]
melting point: 123 °C

CCCCCc1nc2c[n+]([O-])c3ccccc3c2s1 [Example 15, 2-Pentylthiazolo[4,5-c]quinoline-5N-oxide]
melting point: 142 to 144 °C

CCCCc1nc2c[n+]([O-])c3ccccc3c2s1 [Example 17, 2-Butylthiazolo[4,5-c]quinoline-5N-oxide]
melting point: 133 to 135 °C

CCCCc1nc2c(N)nc3ccccc3c2s1 [Example 18, 2-Butylthiazolo[4,5-c]quinolin-4-amine]
Interferon (α) Induction ([2]; Dose Concentration 0.12 μM): − | Interferon (α) Induction ([2]; Dose Concentration 0.37 μM): − | Interferon (α) Induction ([2]; Dose Concentration 1.11 μM): + | Interferon (α) Induction ([2]; Dose Concentration 3.33 μM): + | Interferon (α) Induction ([2]; Dose Concentration 10 μM): + | Interferon (α) Induction ([2]; Dose Concentration 30 μM): + | Tumor Necrosis Factor Induction ([3]; Dose Concentration 0.12 μM): + | Tumor Necrosis Factor Induction ([3]; Dose Concentration 0.37 μM): + | Tumor Necrosis Factor Induction ([3]; Dose Concentration 1.11 μM): + | Tumor Necrosis Factor Induction ([3]; Dose Concentration 3.33 μM): + | Tumor Necrosis Factor Induction ([3]; Dose Concentration 10 μM): + | Tumor Necrosis Factor Induction ([3]; Dose Concentration 30 μM): + | Interferon (α) Induction in Human Cells ([1]; Dose Concentration 0.01 μg/mL): − | Interferon (α) Induction in Human Cells ([1]; Dose Concentration 0.05 μg/mL): − | Interferon (α) Induction in Human Cells ([1]; Dose Concentration 0.10 μg/mL): + | Interferon (α) Induction in Human Cells ([1]; Dose Concentration 0.50 μg/mL): + | Interferon (α) Induction in Human Cells ([1]; Dose Concentration 1.0 μg/mL): + | Interferon (α) Induction in Human Cells ([1]; Dose Concentration 5.0 μg/mL): +

[O-][n+]1cc2nc(/C=C/c3ccccc3)sc2c2ccccc21 [Example 21, 2-(2-Phenyl-1-ethenyl)thiazolo[4,5-c]quinoline-5N-oxide]
melting point: 268 to 270 °C

[O-][n+]1cc2nc(CCc3ccccc3)sc2c2ccccc21 [Example 23, 2-(2-Phenyl-1-ethyl)thiazolo[4,5-c]quinoline-5N-oxide]
melting point: 165 to 169 °C

CC(C)(O)Cc1nc2c[n+]([O-])c3ccccc3c2s1 [Example 25, 2-Methyl-1-(thiazolo[4,5-c]quinolin-2-yl)-2-propanol-5N-oxide]
melting point: 187 to 189 °C

CCOCc1nc2c[n+]([O-])c3ccccc3c2s1 [Example 27, 2-(Ethoxymethyl)thiazolo[4,5-c]quinoline-5N-oxide]
melting point: 138 to 140 °C

[O-][n+]1cc2nc(Cc3ccccc3)sc2c2ccccc21 [Example 33, 2-Benzylthiazolo[4,5-c]quinoline-5N-oxide]
melting point: 185 to 186 °C

Nc1nc2ccccc2c2sc(Cc3ccccc3)nc12 [Example 34, 2-Benzylthiazolo[4,5-c]quinolin-4-amine Hydrochloride]
Interferon (α) Induction in Human Cells ([1]; Dose Concentration 0.01 μg/mL): − | Interferon (α) Induction in Human Cells ([1]; Dose Concentration 0.05 μg/mL): − | Interferon (α) Induction in Human Cells ([1]; Dose Concentration 0.10 μg/mL): − | Interferon (α) Induction in Human Cells ([1]; Dose Concentration 0.50 μg/mL): − | Interferon (α) Induction in Human Cells ([1]; Dose Concentration 1.0 μg/mL): − | Interferon (α) Induction in Human Cells ([1]; Dose Concentration 5.0 μg/mL): −

CCCCc1nc2c(N)nc3ccccc3c2o1 [Example 41, 2-Butyloxazolo[4,5-c]quinolin-4-amine]
Interferon (α) Induction in Human Cells ([1]; Dose Concentration 0.01 μg/mL): + | Interferon (α) Induction in Human Cells ([1]; Dose Concentration 0.05 μg/mL): + | Interferon (α) Induction in Human Cells ([1]; Dose Concentration 0.10 μg/mL): + | Interferon (α) Induction in Human Cells ([1]; Dose Concentration 0.50 μg/mL): + | Interferon (α) Induction in Human Cells ([1]; Dose Concentration 1.0 μg/mL): + | Interferon (α) Induction in Human Cells ([1]; Dose Concentration 5.0 μg/mL): +

CCCc1nc2c(N)nccc2s1 [Example 62, 2-Propylpyrido[3,4-d][1,3]thiazol-4-amine Trifluoroacetate]
Interferon (α) Induction ([2]; Dose Concentration 0.12 μM): − | Interferon (α) Induction ([2]; Dose Concentration 0.37 μM): − | Interferon (α) Induction ([2]; Dose Concentration 1.11 μM): − | Interferon (α) Induction ([2]; Dose Concentration 3.33 μM): − | Interferon (α) Induction ([2]; Dose Concentration 10 μM): − | Interferon (α) Induction ([2]; Dose Concentration 30 μM): − | Tumor Necrosis Factor Induction ([3]; Dose Concentration 0.12 μM): − | Tumor Necrosis Factor Induction ([3]; Dose Concentration 0.37 μM): − | Tumor Necrosis Factor Induction ([3]; Dose Concentration 1.11 μM): − | Tumor Necrosis Factor Induction ([3]; Dose Concentration 3.33 μM): − | Tumor Necrosis Factor Induction ([3]; Dose Concentration 10 μM): − | Tumor Necrosis Factor Induction ([3]; Dose Concentration 30 μM): −
